In data set [1] the target is T1, human phosphoglucomutase 1 (hPGM1) (Homo sapiens, UniProt P36871).
T1 construct: gene PGM1
T1 sequence (P36871 1-562): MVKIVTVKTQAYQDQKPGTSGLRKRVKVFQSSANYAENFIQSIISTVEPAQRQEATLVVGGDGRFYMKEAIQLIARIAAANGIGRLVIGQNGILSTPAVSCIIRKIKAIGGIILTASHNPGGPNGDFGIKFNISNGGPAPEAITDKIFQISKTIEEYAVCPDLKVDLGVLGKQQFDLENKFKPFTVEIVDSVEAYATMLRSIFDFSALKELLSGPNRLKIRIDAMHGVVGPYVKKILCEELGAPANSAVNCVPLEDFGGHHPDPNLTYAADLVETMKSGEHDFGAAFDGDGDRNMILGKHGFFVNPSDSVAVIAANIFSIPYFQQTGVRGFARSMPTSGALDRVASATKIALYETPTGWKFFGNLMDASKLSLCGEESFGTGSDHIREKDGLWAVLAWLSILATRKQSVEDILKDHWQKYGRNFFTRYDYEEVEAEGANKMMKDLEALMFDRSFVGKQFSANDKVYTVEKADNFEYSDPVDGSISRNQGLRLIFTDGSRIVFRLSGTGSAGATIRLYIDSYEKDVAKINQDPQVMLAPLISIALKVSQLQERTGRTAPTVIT
Description: ESI-MS of intact purified protein:[…] phosphorylation of active site serine after incubation. Type of data set: biochemical.

Data set [2] concerns the target T2, Pseudomonas aeruginosa PMM/PGM (PaPMM) (Pseudomonas aeruginosa, UniProt P26276).
T2 construct: gene algC
Description: product formation in coupled G6PDH assay; ESI-MS dephosphorylation of catalytic serine ([…]). In kind it is biochemical.

The target in data set [3] is T2, Pseudomonas aeruginosa PMM/PGM (PaPMM). Description: coupled G6PDH enzyme assay, noncompetitive inhibition fit; also ESI-MS dephosphorylation of active site serine. In kind it is biochemical.
The target is the same in data set [4]. Description: coupled G6PDH enzyme assay, competitive inhibition fit (text prints Ki in μM; Fig. […] legend prints mM). In kind it is biochemical.
For data set [5], the system named is O=P(O)(O)O[C@H]1O[C@H](CO)[C@@H](O)[C@H](O)[C@H]1O. Description: purified protein.

One may read the Ki as the dissociation constant of the complex between target and ligand, obtained from inhibition or displacement. Low values mean higher affinity, high ones lower affinity. A word on the Km: it is the substrate concentration at which the rate is half of its maximum.

T2 sequence (P26276 2-463): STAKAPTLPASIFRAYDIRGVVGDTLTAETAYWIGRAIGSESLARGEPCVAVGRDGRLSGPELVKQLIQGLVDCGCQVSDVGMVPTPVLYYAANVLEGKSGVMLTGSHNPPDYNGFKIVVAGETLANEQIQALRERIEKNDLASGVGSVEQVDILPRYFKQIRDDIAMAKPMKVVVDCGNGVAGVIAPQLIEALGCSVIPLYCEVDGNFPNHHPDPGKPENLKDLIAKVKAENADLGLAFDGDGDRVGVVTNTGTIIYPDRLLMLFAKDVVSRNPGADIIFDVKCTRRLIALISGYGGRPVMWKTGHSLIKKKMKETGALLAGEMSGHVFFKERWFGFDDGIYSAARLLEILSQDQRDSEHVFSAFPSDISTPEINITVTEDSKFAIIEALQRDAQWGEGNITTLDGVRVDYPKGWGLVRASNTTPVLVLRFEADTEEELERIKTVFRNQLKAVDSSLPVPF

With `O=C(COP(=O)(O)O)[C@@H](O)[C@H](O)[C@H](O)COP(=O)(O)O` [F16P, fructose 1,6-bisphosphate], the “ESI-MS of intact purified protein: 92% phosphorylation of active site serine aft” value in data set [1] is on record as “Treatment of hPGM1 with F16P was done herein”.

Regarding `O=C[C@H](O)[C@@H](O)[C@H](O)[C@H](O)COP(=O)(O)O` [G6P, glucose 6-phosphate], the “product formation in coupled G6PDH assay; ESI-MS dephosphorylation of catalytic” value in data set [2] is listed as “Enzymatic activity of PaPMM was quantified by measuring the formation of glucose 6-phosphate (G6P)”.

Molecule `N[C@H]1C(OP(=O)(O)O)O[C@H](CO)[C@@H](O)[C@@H]1O` (some centres unmarked) [GlcN1P, glucosamine 1-phosphate] displayed an inhibition constant Ki in data set [3] of 307 ± 29 µM.

Turning to `O=P(O)(O)O[C@H]1OC[C@@H](O)[C@H](O)[C@H]1O` [X1P, xylose 1-phosphate], in data set [4], the affinity, expressed as Ki, was 8.6 ± 0.3 µM.

Take “Pseudomonas aeruginosa PMM/PGM (PaPMM) (Pseudomonas aeruginosa PAO1)”: in data set [5], the Km amounted to 28 ± 2.8 µM.

The record behind these values is article PMC5192239 (Data in Brief, 2016).
